From US20110065582A1, “ENVIRONMENTALLY FRIENDLY SLOW-RELEASE PESTICIDE FORMULATIONS” (Consejo Superior De Investigaciones Cientificas, priority 2008, published 2011)

Key:
[1] = Adsorption of sulfentrazone in PC vesicle-montmorillonite suspension as a function of buffer pH; type: physicochemical; conditions: 5 g/L montmorillonite, 6 mM PC, 2.6 mM SFZ
Procedure: The formulations of PC with different herbicides were prepared by dissolving various quantities of the herbicide in question in a solution of 6 mM PC through sonication, and subsequent adding of montmorillonite. The herbicides employed were alachlor (hydrophobic in nature), atrazine (of basic nature) and sulfentrazone (of acid nature). […] The added amounts of the herbicides were 1.5-14 mM for alachlor, 1.8-2.4 mM for atrazine and 1.3-5.7 mM for sulfentrazone. The clay concentration was 1.6, 5 or 10 g/L. Following agitation during 24 h the suspensions were centrifuged at 20000 g during 10 min, the remaining herbicide in the supernatants was analysed, and the precipitates were lyophilised giving rise to the formulations. The herbicides were analysed by HPLC (Shimadzu Model 10A) fitted with a PDA detector. The reverse phase column was a Kromasil 100 C18 of 15 cm. The flow speed was 1.0 mL min−1. […]
The final concentrations of the formulations and the percentage in weight of the herbicides in the formulation are shown in Table 2. […] The active ingredient content was determined by means of sonication of 5 mg of each formulation in 20 ml of methanol. The suspensions were centrifuged and the herbicide in the supernatants was analysed. […]

[2] = Speciation of SFZ in solution; type: physicochemical
Description: A primordial factor in the encapsulation of acidic molecules is the pH of the solution. […] However, small anionic species can also permeabilise the bilayers of PC. In fact, SFZ adsorption at pH 7.0 was 4 times higher than the amount of neutral species in solution.

[3] = 96 h of irradiation; cited from earlier work

| SMILES | adsorption of SFZ ([1]; buffer of pH 5.0) [%] | adsorption of SFZ ([1]; buffer of pH 7.0 Trizma-HCl 1 M) [%] | speciation in solution: anions ([2]; pH 5.0) [%] | speciation in solution: neutral molecules ([2]; pH 5.0) [%] | speciation in solution: anionic species ([2]; pH 7.0) [%] | speciation in solution: neutrals ([2]; pH 7.0) [%] | activity retained following irradiation [3] [%] |
| --- | --- | --- | --- | --- | --- | --- | --- |
| Cc1nn(-c2cc(NS(C)(=O)=O)c(Cl)cc2Cl)c(=O)n1C(F)F [SFZ, sulfentrazone] | 69.5 | 11.8 | 2.7 | 97.3 | 73.4 | 26.6 | – |
| CCCN(CCC)c1c([N+](=O)[O-])cc(C(F)(F)F)cc1[N+](=O)[O-] [free trifluralin, trifluralin] | – | – | – | – | – | – | 30 |
